Assays:
[1] = test system: SF-268 central nervous system cancer cells; assay: National Cancer Institute growth testing, SF-268; format: cell-based
Experimental: (§1) Acetone-soluble lipids (ASLs) were prepared from intact M. ulcerans cells as in Example 1, except that the acetone resuspension was applied to a preparative TLC plate to allow substantial separation of the ASLs based on relative mobility in the TLC system. The ASL with a mobility of 0.23 relative to the solvent front was scraped from the plate and resuspended.

[2] = test system: infiltration of macrophages and polymorphonuclear neutrophils; assay: Inflammatory reaction at site of M. marinum infection in guinea pigs; format: in vivo, Hartley guinea pigs; details: 16 hours after infection
Experimental: Mycolactone was purified as in Example 2. Hartley guinea pigs were inoculated with an infectious quantity of M. marinum. When the inoculum was not accompanied by mycolactone, a painful, purulent lesion developed in the guinea pigs, indicative of an inflammatory reaction. In contrast, when mycolactone was injected into the locus, tissue necrosis still developed, but the infiltration of macrophages and polymorphonuclear neutrophils was delayed by 24 to 48 hours, resulting in greater than a 1,000-fold reduction in the number of neutrophils invading the site of infection 16 hours after infection. Inflammation, or the lack thereof, was confirmed by histopathological examination of paraffin embedded tissues stained with eosin and hematoxylin. While not desiring to be bound by any particular theory, it is believed that the subsequent inflammation that occurred in mycolactone-treated animals was partially a consequence of the continued growth of M. marinum. When the polyketide macrolides of the present invention are used to decrease inflammation at a site of infection, the inventive method is optionally accompanied by the administration of antibiotics.

H460 lung cancer cells = assay: National Cancer Institute growth testing, H460; format: cell-based
Experimental: as §1

[3] = test system: MCF-7 breast cancer cells; assay: National Cancer Institute growth testing, MCF-7; format: cell-based
Experimental: as §1

[4] = Biological activity level of mycolactones (test not specified)

**Q.** Which results are given for CC(=C/C(C)=C/C=C/C(C)=C/C(O)C(O)CC(C)O)/C=C/C(=O)OC1CCCC(=O)OC(C(C)C/C(C)=C/C(C)C(O)CC(C)O)C/C=C(\C)CC1C (stereo not drawn) [mycolactone]?
**A.** relative growth rate [1]: −79%; reduction in the number of neutrophils invading the site of infection [2]: > 1,000 fold; relative growth rate (H460 lung cancer cells): −72%; relative growth rate [3]: −78%

**Q.** For CC(=C\C=C\C(C)=C\C[C@@H](O)C[C@H](C)O)/C=C(C)/C=C/C(=O)O[C@H]1CCCC(=O)O[C@@H]([C@@H](C)C/C(C)=C/[C@@H](C)[C@H](O)C[C@@H](C)O)C/C=C(\C)C[C@@H]1C [mycolactone C], which “activity level relative to the other mycolactones” value ([4]; mycolactone found in Australian isolates) is on record?
**A.** Its value is “about 10,000 fold lower”.

**Q.** With C/C1=C/C[C@H]([C@@H](C)C/C(C)=C/[C@@H](C)[C@H](O)C[C@@H](C)O)OC(=O)CCC[C@H](OC(=O)/C=C/C(C)=C/C(C)=C/C=C/C(C)=C/[C@H](O)[C@@H](O)C[C@H](C)O)[C@@H](C)C1 [B] as the molecule, how does the “biological activity of isomers compared” value ([4]; isomers differing at the 4′ position) read?
**A.** The value was “same biological activity”.

Source: patent publication US6680055B1, “Mycolactone and related compounds, compositions and methods of use” (priority 1999, dated 2004)
